Consider 4 compounds from PubChem BioAssay AID1963837 (Molecular Pharmacology Branch, DTP, NCI, 2024).
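Note: spheroids exposed to drugs for seven days before readout.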

For the first assay, the system named is 843126-344-R-J1-PDC complex spheroid viability. The assay can be described thus: Anticancer human tumor 843126-344-R-J1-PDC patient-derived melanoma cell line growth inhibition [POLQ]. The following applies: second compound 3.16 µM; first compound 0.1 µM; stronger effect = lower value. The gist of the method:
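PDC + HUVEC + MSC complex spheroids; POLQ inhibitors ± partner drugs; top conc. at/near clinical Cmax, else 10 microM (SN-38 1 microM), half-log dilutions; 37 degrees C, 5% CO2.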
As to `O=C(Nc1ccc(O)c(NS(=O)(=O)c2ccc(F)cc2)c1)c1ccc(-c2ccccc2)cc1` + Cc1cccc(N(C)C(=O)C2C(O)CCN2c2nc(C)cc(C(F)(F)F)c2C#N)c1, the viability, T/C is 97.7%.

For `COc1cccc2c1C(=O)c1c(O)c3c(c(O)c1C2=O)CC(O)(C(=O)CO)CC3OC1CC(N)C(O)C(C)O1` (configuration not stated) + Nc1ccc(C#CCN(C(=O)Cc2ncc(C(F)(F)F)cc2C(F)(F)F)c2ccc(F)cc2)nn1, the viability, T/C is 76.3%.

Still in this assay, the particulars now being: second compound 3.16 µM; first compound 0.316 µM; stronger effect = lower value.
Consider `C#Cc1c(F)ccc2cc(O)cc(-c3ncc4c(N5CC6CCC(C5)N6)nc(OCC56CCCN5CC(F)C6)nc4c3F)c12` (configuration not stated) + Cc1cccc(N(C)C(=O)C2C(O)CCN2c2nc(C)cc(C(F)(F)F)c2C#N)c1, for which the viability, T/C is 87.3%.

As to `CC1COCCN1c1cc(C2(O)CC3CCC(C2)O3)c2cnn(-c3ccn[nH]3)c2n1` (configuration not stated) + Cc1cccc(N(C)C(=O)C2C(O)CCN2c2nc(C)cc(C(F)(F)F)c2C#N)c1, the viability, T/C was 51.5%.

For `O=C(Nc1ccc(O)c(NS(=O)(=O)c2ccc(F)cc2)c1)c1ccc(-c2ccccc2)cc1` + Cc1cccc(N(C)C(=O)C2C(O)CCN2c2nc(C)cc(C(F)(F)F)c2C#N)c1, the viability, T/C is 89%.

`COc1cccc2c1C(=O)c1c(O)c3c(c(O)c1C2=O)CC(O)(C(=O)CO)CC3OC1CC(N)C(O)C(C)O1` (configuration not stated) + Nc1ccc(C#CCN(C(=O)Cc2ncc(C(F)(F)F)cc2C(F)(F)F)c2ccc(F)cc2)nn1: the viability, T/C was 47.8%.

The same assay, now with this note: second compound 3.16 µM; first compound 1 µM; stronger effect = lower value.
As for `C#Cc1c(F)ccc2cc(O)cc(-c3ncc4c(N5CC6CCC(C5)N6)nc(OCC56CCCN5CC(F)C6)nc4c3F)c12` (configuration not stated) + Cc1cccc(N(C)C(=O)C2C(O)CCN2c2nc(C)cc(C(F)(F)F)c2C#N)c1, the viability, T/C is 93.7%.

As for `CC1COCCN1c1cc(C2(O)CC3CCC(C2)O3)c2cnn(-c3ccn[nH]3)c2n1` (configuration not stated) + Cc1cccc(N(C)C(=O)C2C(O)CCN2c2nc(C)cc(C(F)(F)F)c2C#N)c1, the viability, T/C was 47.5%.

Take `O=C(Nc1ccc(O)c(NS(=O)(=O)c2ccc(F)cc2)c1)c1ccc(-c2ccccc2)cc1` + Cc1cccc(N(C)C(=O)C2C(O)CCN2c2nc(C)cc(C(F)(F)F)c2C#N)c1: the viability, T/C is 90.6%.

Turning to `COc1cccc2c1C(=O)c1c(O)c3c(c(O)c1C2=O)CC(O)(C(=O)CO)CC3OC1CC(N)C(O)C(C)O1` (configuration not stated) + Nc1ccc(C#CCN(C(=O)Cc2ncc(C(F)(F)F)cc2C(F)(F)F)c2ccc(F)cc2)nn1, the viability, T/C was 13.9%.

Still in this assay, the particulars now being: second compound 3.16 µM; first compound 3.16 µM; stronger effect = lower value.
For the compound `C#Cc1c(F)ccc2cc(O)cc(-c3ncc4c(N5CC6CCC(C5)N6)nc(OCC56CCCN5CC(F)C6)nc4c3F)c12` (configuration not stated) + Cc1cccc(N(C)C(=O)C2C(O)CCN2c2nc(C)cc(C(F)(F)F)c2C#N)c1, the viability, T/C was 82.7%.

Take `CC1COCCN1c1cc(C2(O)CC3CCC(C2)O3)c2cnn(-c3ccn[nH]3)c2n1` (configuration not stated) + Cc1cccc(N(C)C(=O)C2C(O)CCN2c2nc(C)cc(C(F)(F)F)c2C#N)c1: the viability, T/C is 33.2%.

On to `O=C(Nc1ccc(O)c(NS(=O)(=O)c2ccc(F)cc2)c1)c1ccc(-c2ccccc2)cc1` + Cc1cccc(N(C)C(=O)C2C(O)CCN2c2nc(C)cc(C(F)(F)F)c2C#N)c1, for which the viability, T/C was 84.6%.

For the compound `COc1cccc2c1C(=O)c1c(O)c3c(c(O)c1C2=O)CC(O)(C(=O)CO)CC3OC1CC(N)C(O)C(C)O1` (configuration not stated) + Nc1ccc(C#CCN(C(=O)Cc2ncc(C(F)(F)F)cc2C(F)(F)F)c2ccc(F)cc2)nn1, the viability, T/C was 3.21%.

The assay is the same for the next values; noted with them: second compound 3.16 µM; first compound 10 µM; stronger effect = lower value.
In the case of `C#Cc1c(F)ccc2cc(O)cc(-c3ncc4c(N5CC6CCC(C5)N6)nc(OCC56CCCN5CC(F)C6)nc4c3F)c12` (configuration not stated) + Cc1cccc(N(C)C(=O)C2C(O)CCN2c2nc(C)cc(C(F)(F)F)c2C#N)c1, the viability, T/C is 69.8%.

As to `CC1COCCN1c1cc(C2(O)CC3CCC(C2)O3)c2cnn(-c3ccn[nH]3)c2n1` (configuration not stated) + Cc1cccc(N(C)C(=O)C2C(O)CCN2c2nc(C)cc(C(F)(F)F)c2C#N)c1, the viability, T/C was 20.6%.

For `O=C(Nc1ccc(O)c(NS(=O)(=O)c2ccc(F)cc2)c1)c1ccc(-c2ccccc2)cc1` + Cc1cccc(N(C)C(=O)C2C(O)CCN2c2nc(C)cc(C(F)(F)F)c2C#N)c1, the viability, T/C was 69%.

As for `COc1cccc2c1C(=O)c1c(O)c3c(c(O)c1C2=O)CC(O)(C(=O)CO)CC3OC1CC(N)C(O)C(C)O1` (configuration not stated) + Nc1ccc(C#CCN(C(=O)Cc2ncc(C(F)(F)F)cc2C(F)(F)F)c2ccc(F)cc2)nn1, the viability, T/C is 2.76%.

The same assay, now with this note: second compound 10 µM; first compound 0.0316 µM; stronger effect = lower value.
With `C#Cc1c(F)ccc2cc(O)cc(-c3ncc4c(N5CC6CCC(C5)N6)nc(OCC56CCCN5CC(F)C6)nc4c3F)c12` (configuration not stated) + Cc1cccc(N(C)C(=O)C2C(O)CCN2c2nc(C)cc(C(F)(F)F)c2C#N)c1, the viability, T/C is 102%.

As to `CC1COCCN1c1cc(C2(O)CC3CCC(C2)O3)c2cnn(-c3ccn[nH]3)c2n1` (configuration not stated) + Cc1cccc(N(C)C(=O)C2C(O)CCN2c2nc(C)cc(C(F)(F)F)c2C#N)c1, the viability, T/C was 87.7%.

Take `O=C(Nc1ccc(O)c(NS(=O)(=O)c2ccc(F)cc2)c1)c1ccc(-c2ccccc2)cc1` + Cc1cccc(N(C)C(=O)C2C(O)CCN2c2nc(C)cc(C(F)(F)F)c2C#N)c1: the viability, T/C was 92.2%.

Turning to `COc1cccc2c1C(=O)c1c(O)c3c(c(O)c1C2=O)CC(O)(C(=O)CO)CC3OC1CC(N)C(O)C(C)O1` (configuration not stated) + Nc1ccc(C#CCN(C(=O)Cc2ncc(C(F)(F)F)cc2C(F)(F)F)c2ccc(F)cc2)nn1, the viability, T/C was 80.6%.

Still in this assay, the particulars now being: second compound 10 µM; first compound 0.1 µM; stronger effect = lower value.
For the compound `C#Cc1c(F)ccc2cc(O)cc(-c3ncc4c(N5CC6CCC(C5)N6)nc(OCC56CCCN5CC(F)C6)nc4c3F)c12` (configuration not stated) + Cc1cccc(N(C)C(=O)C2C(O)CCN2c2nc(C)cc(C(F)(F)F)c2C#N)c1, the viability, T/C was 80.1%.

As to `CC1COCCN1c1cc(C2(O)CC3CCC(C2)O3)c2cnn(-c3ccn[nH]3)c2n1` (configuration not stated) + Cc1cccc(N(C)C(=O)C2C(O)CCN2c2nc(C)cc(C(F)(F)F)c2C#N)c1, the viability, T/C was 82.8%.

On to `O=C(Nc1ccc(O)c(NS(=O)(=O)c2ccc(F)cc2)c1)c1ccc(-c2ccccc2)cc1` + Cc1cccc(N(C)C(=O)C2C(O)CCN2c2nc(C)cc(C(F)(F)F)c2C#N)c1, for which the viability, T/C is 87.4%.

As for `COc1cccc2c1C(=O)c1c(O)c3c(c(O)c1C2=O)CC(O)(C(=O)CO)CC3OC1CC(N)C(O)C(C)O1` (configuration not stated) + Nc1ccc(C#CCN(C(=O)Cc2ncc(C(F)(F)F)cc2C(F)(F)F)c2ccc(F)cc2)nn1, the viability, T/C is 73.4%.

The assay is the same for the next values; noted with them: second compound 10 µM; first compound 0.316 µM; stronger effect = lower value.
Take `C#Cc1c(F)ccc2cc(O)cc(-c3ncc4c(N5CC6CCC(C5)N6)nc(OCC56CCCN5CC(F)C6)nc4c3F)c12` (configuration not stated) + Cc1cccc(N(C)C(=O)C2C(O)CCN2c2nc(C)cc(C(F)(F)F)c2C#N)c1: the viability, T/C was 95.5%.

With `CC1COCCN1c1cc(C2(O)CC3CCC(C2)O3)c2cnn(-c3ccn[nH]3)c2n1` (configuration not stated) + Cc1cccc(N(C)C(=O)C2C(O)CCN2c2nc(C)cc(C(F)(F)F)c2C#N)c1, the viability, T/C was 63.8%.

For `O=C(Nc1ccc(O)c(NS(=O)(=O)c2ccc(F)cc2)c1)c1ccc(-c2ccccc2)cc1` + Cc1cccc(N(C)C(=O)C2C(O)CCN2c2nc(C)cc(C(F)(F)F)c2C#N)c1, the viability, T/C is 89.2%.

As for `COc1cccc2c1C(=O)c1c(O)c3c(c(O)c1C2=O)CC(O)(C(=O)CO)CC3OC1CC(N)C(O)C(C)O1` (configuration not stated) + Nc1ccc(C#CCN(C(=O)Cc2ncc(C(F)(F)F)cc2C(F)(F)F)c2ccc(F)cc2)nn1, the viability, T/C is 48.5%.

The assay is the same for the next values; noted with them: second compound 10 µM; first compound 1 µM; stronger effect = lower value.
Regarding `C#Cc1c(F)ccc2cc(O)cc(-c3ncc4c(N5CC6CCC(C5)N6)nc(OCC56CCCN5CC(F)C6)nc4c3F)c12` (configuration not stated) + Cc1cccc(N(C)C(=O)C2C(O)CCN2c2nc(C)cc(C(F)(F)F)c2C#N)c1, the viability, T/C was 85.9%.

Take `CC1COCCN1c1cc(C2(O)CC3CCC(C2)O3)c2cnn(-c3ccn[nH]3)c2n1` (configuration not stated) + Cc1cccc(N(C)C(=O)C2C(O)CCN2c2nc(C)cc(C(F)(F)F)c2C#N)c1: the viability, T/C is 45.2%.

Consider `O=C(Nc1ccc(O)c(NS(=O)(=O)c2ccc(F)cc2)c1)c1ccc(-c2ccccc2)cc1` + Cc1cccc(N(C)C(=O)C2C(O)CCN2c2nc(C)cc(C(F)(F)F)c2C#N)c1, for which the viability, T/C was 85.5%.

For the compound `COc1cccc2c1C(=O)c1c(O)c3c(c(O)c1C2=O)CC(O)(C(=O)CO)CC3OC1CC(N)C(O)C(C)O1` (configuration not stated) + Nc1ccc(C#CCN(C(=O)Cc2ncc(C(F)(F)F)cc2C(F)(F)F)c2ccc(F)cc2)nn1, the viability, T/C is 10.4%.

The assay is the same for the next values; noted with them: second compound 10 µM; first compound 3.16 µM; stronger effect = lower value.
Take `C#Cc1c(F)ccc2cc(O)cc(-c3ncc4c(N5CC6CCC(C5)N6)nc(OCC56CCCN5CC(F)C6)nc4c3F)c12` (configuration not stated) + Cc1cccc(N(C)C(=O)C2C(O)CCN2c2nc(C)cc(C(F)(F)F)c2C#N)c1: the viability, T/C is 91.6%.

Turning to `CC1COCCN1c1cc(C2(O)CC3CCC(C2)O3)c2cnn(-c3ccn[nH]3)c2n1` (configuration not stated) + Cc1cccc(N(C)C(=O)C2C(O)CCN2c2nc(C)cc(C(F)(F)F)c2C#N)c1, the viability, T/C is 29.3%.

Take `O=C(Nc1ccc(O)c(NS(=O)(=O)c2ccc(F)cc2)c1)c1ccc(-c2ccccc2)cc1` + Cc1cccc(N(C)C(=O)C2C(O)CCN2c2nc(C)cc(C(F)(F)F)c2C#N)c1: the viability, T/C was 93.5%.

For the compound `COc1cccc2c1C(=O)c1c(O)c3c(c(O)c1C2=O)CC(O)(C(=O)CO)CC3OC1CC(N)C(O)C(C)O1` (configuration not stated) + Nc1ccc(C#CCN(C(=O)Cc2ncc(C(F)(F)F)cc2C(F)(F)F)c2ccc(F)cc2)nn1, the viability, T/C is 2.78%.

Still in this assay, the particulars now being: second compound 10 µM; first compound 10 µM; stronger effect = lower value.
As for `C#Cc1c(F)ccc2cc(O)cc(-c3ncc4c(N5CC6CCC(C5)N6)nc(OCC56CCCN5CC(F)C6)nc4c3F)c12` (configuration not stated) + Cc1cccc(N(C)C(=O)C2C(O)CCN2c2nc(C)cc(C(F)(F)F)c2C#N)c1, the viability, T/C is 61.8%.

With `CC1COCCN1c1cc(C2(O)CC3CCC(C2)O3)c2cnn(-c3ccn[nH]3)c2n1` (configuration not stated) + Cc1cccc(N(C)C(=O)C2C(O)CCN2c2nc(C)cc(C(F)(F)F)c2C#N)c1, the viability, T/C is 17.7%.

On to `O=C(Nc1ccc(O)c(NS(=O)(=O)c2ccc(F)cc2)c1)c1ccc(-c2ccccc2)cc1` + Cc1cccc(N(C)C(=O)C2C(O)CCN2c2nc(C)cc(C(F)(F)F)c2C#N)c1, for which the viability, T/C was 62.5%.

On to `COc1cccc2c1C(=O)c1c(O)c3c(c(O)c1C2=O)CC(O)(C(=O)CO)CC3OC1CC(N)C(O)C(C)O1` (configuration not stated) + Nc1ccc(C#CCN(C(=O)Cc2ncc(C(F)(F)F)cc2C(F)(F)F)c2ccc(F)cc2)nn1, for which the viability, T/C was 2.29%.
